The target of one test is hPAD4 (Homo sapiens, UniProt Q9UM07). Nature of the test: hPAD4 RFMS (RapidFire mass spectrometry) PAD4 inhibition assay.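 As to hPAD4 RFMS pIC50: grade E means pIC50 at most 4 and F means pIC50 4.0 to 5.0.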 Format: biochemical. The following applies: hPAD4 enzyme, RFMS readout. How it is done:
(§1) Compounds of the present invention were assayed as inhibitors of PAD4 using the assay protocol described below.
(§2) Compound stock solutions were stored at RT. […] Final assay conditions were as follows:
(§3) Total incubation time: 65 mins at 37° C.
(§4) Stop solution: 40 μl 5% TCA in ACN
(§5) The compound numbers correspond to the compound numbers in Table 1. […] The term pIC50=−log(IC50). […] “NA” stands for “not assayed.”

Another test concerns the target mPAD4 (Mus musculus, UniProt Q9Z183). Description: mPAD4 RFMS PAD4 inhibition assay.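 As to mPAD4 RFMS pIC50: grade E means pIC50 at most 4 and F means pIC50 4.0 to 5.0.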 Format: biochemical. To be noted: mPAD4, RFMS readout. How it is done: as §1, §2, §3, §4, §5
The mark [1] stands for this setting: pIC50=−log(IC50), read-out: hPAD4 RFMS pIC50 (converted).
[2] abbreviates: pIC50=−log(IC50), read-out: mPAD4 RFMS pIC50 (converted).

Where two headings read alike, the source gives them in different places.

mPAD4, sequence (Q9Z183 whole entry): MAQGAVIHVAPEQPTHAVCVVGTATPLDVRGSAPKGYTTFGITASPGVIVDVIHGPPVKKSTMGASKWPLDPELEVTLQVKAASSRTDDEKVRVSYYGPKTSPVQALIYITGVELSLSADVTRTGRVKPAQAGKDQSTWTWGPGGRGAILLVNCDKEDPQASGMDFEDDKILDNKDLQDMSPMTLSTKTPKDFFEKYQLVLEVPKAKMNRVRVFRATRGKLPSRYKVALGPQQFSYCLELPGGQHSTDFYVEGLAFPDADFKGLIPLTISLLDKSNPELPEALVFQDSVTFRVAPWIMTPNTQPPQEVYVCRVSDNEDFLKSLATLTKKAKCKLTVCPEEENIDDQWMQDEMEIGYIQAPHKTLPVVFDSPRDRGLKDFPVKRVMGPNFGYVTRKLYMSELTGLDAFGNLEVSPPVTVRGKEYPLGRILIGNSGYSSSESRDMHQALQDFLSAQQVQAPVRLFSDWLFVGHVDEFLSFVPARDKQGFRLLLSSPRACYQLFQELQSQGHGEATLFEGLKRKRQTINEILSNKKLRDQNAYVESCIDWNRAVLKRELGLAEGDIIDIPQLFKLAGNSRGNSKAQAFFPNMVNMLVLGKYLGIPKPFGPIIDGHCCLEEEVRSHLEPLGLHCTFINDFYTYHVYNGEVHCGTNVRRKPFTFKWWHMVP
hPAD4, sequence (Q9UM07 whole entry): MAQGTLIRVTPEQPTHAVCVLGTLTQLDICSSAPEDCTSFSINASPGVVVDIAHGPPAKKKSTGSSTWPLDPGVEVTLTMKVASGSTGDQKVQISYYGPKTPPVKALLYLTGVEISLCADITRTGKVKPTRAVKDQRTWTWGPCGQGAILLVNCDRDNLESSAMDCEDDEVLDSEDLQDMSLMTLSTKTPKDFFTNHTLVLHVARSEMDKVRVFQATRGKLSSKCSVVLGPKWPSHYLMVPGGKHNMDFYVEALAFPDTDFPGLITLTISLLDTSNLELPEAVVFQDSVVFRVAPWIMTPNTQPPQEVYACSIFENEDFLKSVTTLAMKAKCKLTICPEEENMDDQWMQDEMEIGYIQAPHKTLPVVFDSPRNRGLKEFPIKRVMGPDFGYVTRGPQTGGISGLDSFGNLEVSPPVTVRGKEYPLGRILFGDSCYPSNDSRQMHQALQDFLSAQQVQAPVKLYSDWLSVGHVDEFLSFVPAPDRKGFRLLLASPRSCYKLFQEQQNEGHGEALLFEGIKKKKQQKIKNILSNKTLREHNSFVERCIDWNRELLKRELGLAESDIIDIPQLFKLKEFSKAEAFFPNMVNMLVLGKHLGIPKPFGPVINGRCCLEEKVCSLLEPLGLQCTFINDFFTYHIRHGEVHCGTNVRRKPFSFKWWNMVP

As to `CCn1c(-c2nc3cc(C(=O)N4CCC[C@@H](N)C4)cc(OC)c3n2C)cc2ccc(C(F)(F)F)nc21` [Compound I-184], the IC50 on hPAD4 (setting [1]), on hPAD4 (read-out: hPAD4 RFMS IC50), at mPAD4 (setting [2]) and on mPAD4 (read-out: mPAD4 RFMS IC50) was less than 1000 nM each time.
Regarding `COc1cc(C(=O)N2CC[C@@H]3CCN[C@@H]3C2)cc2nc(-c3cc4cccnc4n3CC3CC3)n(C)c12` [Compound I-11], the IC50 on hPAD4 (setting [1]), on hPAD4 (read-out: hPAD4 RFMS IC50), on mPAD4 (setting [2]) and on mPAD4 (read-out: mPAD4 RFMS IC50) was less than 1000 nM throughout.
As for `COc1cc(C(=O)N2CC3CCC2C3N)cc2nc(-c3cc4cccnc4n3CC3CC3)n(C)c12` (stereo not drawn) [Compound I-81], the IC50 at hPAD4 (setting [1]), at hPAD4 (read-out: hPAD4 RFMS IC50), on mPAD4 (setting [2]) and on mPAD4 (read-out: mPAD4 RFMS IC50) was less than 1000 nM throughout.
Consider `CCn1c(-c2cc3ccc(OC)nc3n2CC2CC2)nc2cc(C(=O)N3C[C@@H](N)C[C@H](F)C3)cc(OC)c21` [Compound I-92], for which the IC50 on hPAD4 (setting [1]) was 1000 to 10000 nM; on hPAD4 (read-out: hPAD4 RFMS IC50), 1000 to 5000 nM; on mPAD4 (setting [2]), less than 1000 nM; on mPAD4 (read-out: mPAD4 RFMS IC50), less than 1000 nM.
Take `COc1cc(C(=O)N2CCC[C@@H](N)C2)cc2nc(-c3cc4cccnc4n3[C@H](C)C3CC3)n(C)c12` [Compound I-101, (3R)-1-(2-{1-[(1R)-1-cyclopropylethyl]-1H-pyrrolo[2,3-b]pyridin-2-yl}-7-methoxy-1-methyl-1H-1,3-benzodiazole-5-carbonyl)piperidin-3-amine]: the IC50 on hPAD4 (setting [1]) is 1000 to 10000 nM; on hPAD4 (read-out: hPAD4 RFMS IC50), 1000 to 5000 nM; at mPAD4 (setting [2]) it was 1000 to 10000 nM; at mPAD4 (read-out: mPAD4 RFMS IC50), 1000 to 5000 nM.
On to `CCn1c(-c2nc3cc(C(=O)N4CCC[C@@H](N)C4)cc(OC)c3n2C[C@H]2C[C@@](C)(OC)C2)cc2ccc(OC)nc21` [Compound I-204], for which the IC50 at hPAD4 (setting [1]), at hPAD4 (read-out: hPAD4 RFMS IC50), at mPAD4 (setting [2]) and at mPAD4 (read-out: mPAD4 RFMS IC50) was less than 1000 nM throughout.
On to `COc1cc(C(=O)N2C[C@@H]3CC[C@H]2[C@@H](N)C3)cc2nc(-c3cc4cccnc4n3CC3CC3)n(C)c12` [Compound I-212], for which the IC50 at hPAD4 (setting [1]) is 10000 to 100000 nM; on hPAD4 (read-out: hPAD4 RFMS IC50), more than 10000 nM; on mPAD4 (setting [2]), 10000 to 100000 nM; at mPAD4 (read-out: mPAD4 RFMS IC50) it was more than 10000 nM.
Regarding `Cn1c(-c2cc3cccnc3n2CC2CC2)nc2cc(C(=O)N3C[C@@H](N)C[C@H](F)C3)cc(OC(F)F)c21` [Compound I-73], the IC50 at hPAD4 (setting [1]) is 1000 to 10000 nM; on hPAD4 (read-out: hPAD4 RFMS IC50), 1000 to 5000 nM; at mPAD4 (setting [2]) it was less than 1000 nM; on mPAD4 (read-out: mPAD4 RFMS IC50), less than 1000 nM.
With `Cn1c(-c2cc3cccnc3n2CC2CC2)nc2cc(C(=O)N3C[C@@H](N)C[C@H](F)C3)ccc21` [Compound I-66], the IC50 on hPAD4 (setting [1]) is 1000 to 10000 nM; on hPAD4 (read-out: hPAD4 RFMS IC50), less than 1000 nM; on mPAD4 (setting [2]) it was 1000 to 10000 nM; on mPAD4 (read-out: mPAD4 RFMS IC50), 1000 to 5000 nM.
Turning to `Cn1c(-c2cc3cccnc3n2CC2CC2)nc2cc(C(=O)N3CC[C@H]4CCN[C@H]4C3)ccc21` [Compound I-10], the IC50 was 1000 to 10000 nM at hPAD4 (setting [1]), 1000 to 5000 nM on hPAD4 (read-out: hPAD4 RFMS IC50), 1000 to 10000 nM on mPAD4 (setting [2]) and 5000 to 10000 nM on mPAD4 (read-out: mPAD4 RFMS IC50).
Turning to `CCn1c(-c2nc3cc(C(=O)N4CCC[C@@H](N)C4)c(F)cc3n2C)cc2cccnc21` [Compound I-171], the IC50 is 1000 to 10000 nM at hPAD4 (setting [1]), 5000 to 10000 nM on hPAD4 (read-out: hPAD4 RFMS IC50), 1000 to 10000 nM on mPAD4 (setting [2]) and 5000 to 10000 nM on mPAD4 (read-out: mPAD4 RFMS IC50).
In the case of `CCn1c(-c2nc3cc(C(=O)N4CCC[C@@H](N)C4)cc(OC)c3n2CC2CCOCC2)cc2cccnc21` [Compound I-174], the IC50 on hPAD4 (setting [1]) is 1000 to 10000 nM; on hPAD4 (read-out: hPAD4 RFMS IC50), 1000 to 5000 nM; at mPAD4 (setting [2]), 1000 to 10000 nM; at mPAD4 (read-out: mPAD4 RFMS IC50), 1000 to 5000 nM.
As to `COc1cc(C(=O)N2C[C@H](N)C[C@@H](F)C2)cc2nc(-c3cc4cccnc4n3CC3CC3)n(C[C@H]3C[C@@](C)(OC)C3)c12` [Compound I-209], the IC50 on hPAD4 (setting [1]), on hPAD4 (read-out: hPAD4 RFMS IC50), on mPAD4 (setting [2]) and at mPAD4 (read-out: mPAD4 RFMS IC50) was less than 1000 nM throughout.
On to `COc1cc(C(=O)N2C[C@H]3CC[C@@H]2[C@@H]3N)cc2nc(-c3cc4cccnc4n3CC3CC3)n(CC[S+](C)[O-])c12` (stereo partly drawn) [Compound I-213, (1R,4R,7R)-2-{2-[1-(Cyclopropylmethyl)-1H-pyrrolo[2,3-b]pyridin-2-yl]-1-(2-methanesulfinylethyl)-7-methoxy-1H-1,3-benzodiazole-5-carbonyl}-2-azabicyclo[2.2.1]heptan-7-amine], for which the IC50 at hPAD4 (setting [1]), at hPAD4 (read-out: hPAD4 RFMS IC50), at mPAD4 (setting [2]) and at mPAD4 (read-out: mPAD4 RFMS IC50) was less than 1000 nM each time.
On to `CCn1c(-c2nc3cc(C(=O)N4C[C@H]5CC[C@@H]4[C@@H]5N)cc(OC)c3n2C)cc2ccc(OC)nc21` [Compound I-139], for which the IC50 at hPAD4 (setting [1]), at hPAD4 (read-out: hPAD4 RFMS IC50), on mPAD4 (setting [2]) and at mPAD4 (read-out: mPAD4 RFMS IC50) was less than 1000 nM throughout.

The values above are taken from patent US9963448B2, “Bicyclic inhibitors of PAD4” (Padlock Therapeutics, Inc., priority 2015, dated 2018).
